{"source": "patent US20230322785A1", "about": "“ADENOSINE A2A AND A2B RECEPTOR DUAL ANTAGONISTS FOR IMMUNO-ONCOLOGY” (Merck Sharp & Dohme LLC, priority 2020, published 2023)", "data": [{"target": "T1, human A2A adenosine receptor (Homo sapiens, UniProt P29274)", "T1 construct": "expressed in transfected cells; host or cells: HEK293 or CHO cells", "T1 sequence (P29274 whole entry)": "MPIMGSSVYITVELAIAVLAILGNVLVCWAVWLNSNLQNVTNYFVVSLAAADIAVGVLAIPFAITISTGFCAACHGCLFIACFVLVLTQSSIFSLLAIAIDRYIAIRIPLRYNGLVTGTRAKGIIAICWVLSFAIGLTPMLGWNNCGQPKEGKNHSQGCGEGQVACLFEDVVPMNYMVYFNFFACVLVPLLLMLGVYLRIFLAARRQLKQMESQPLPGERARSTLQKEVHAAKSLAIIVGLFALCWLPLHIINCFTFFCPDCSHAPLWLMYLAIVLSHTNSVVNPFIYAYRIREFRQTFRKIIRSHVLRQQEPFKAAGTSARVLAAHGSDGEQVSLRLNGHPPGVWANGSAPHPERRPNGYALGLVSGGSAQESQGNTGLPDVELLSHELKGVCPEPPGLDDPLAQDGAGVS", "experiment": "A2A binding affinity, Method (B): scintillation proximity assay (SPA) with [3H]SCH58261", "conditions": "membranes of HEK293 or CHO cells expressing the human receptor", "source_text": "Method (A) describes the procedure used to measure A2A binding affinity using radioligand binding. Method (B) describes the procedure used to measure A2A binding affinity using SPA technology. The method used to measure A2B binding affinity is also described below. The method used to determine the A2A IC50 value reported for each compound in the table is indicated next to the reported value. The A2B IC50 value measured using the A2B binding affinity assay is shown in the table next to the compound under the corresponding A2A value.\nThe A2A receptor affinity binding assay measured the amount of binding of a tritiated ligand with high affinity for the A2A adenosine receptor to membranes made from HEK293 or CHO cells recombinantly expressing the human A2A adenosine receptor, in the presence of varying concentrations of a compound of the invention. The data were generated using either filtration binding or a homogenous scintillation proximity assay (SPA).\nMethod (B): Measurement of A2A Binding Affinity Using SPA\nBinding affinity using SPA was conducted as follows. Test compounds (50 nL) were dispensed into individual wells of a 384-well OptiPlate™ well (Perkin Elmer) by Echo® acoustic liquid transfer (Labcyte). 20 µL of 1.25 nM [^3H] SCH58261 ((7-(2-phenylethyl)-5-amino-2-(2-furyl)-pyrazolo-[4,3-e]-1,2,4-triazolo[1,5-c]pyrimidine)) in DPBS assay buffer (Dulbecco’s phosphate buffered saline without calcium and magnesium, ThermoFisher Scientific, Cat. No. A1285601) supplemented with 10 mM MgCl2 was added. A2A receptor-expressing membranes were incubated with 20 µg/mL adenosine deaminase (Roche, Cat. No. 10 102 105 001) for 15 min at room temperature. The receptor-expressing membranes were then combined with wheat germ agglutinin-coated yttrium silicate SPA beads (GE Healthcare, Cat. No. RPNQ0023) in a ratio of […] (w/w) and incubated for 30 min at room temperature. 30 µL of the membrane/bead mixture (0.25 µg and 25 µg per well respectively) were added to the 384-well OptiPlate™ well. To define total and non-specific binding, wells containing 1% DMSO or 1 µM CGS 15943 (Tocris Bioscience, Cat. No. 1699) respectively were also included in the experiment. The plate was incubated for 1 h at room temperature with agitation. The assay plate was then incubated for an h to allow the beads to settle before data were collected using a TopCount® (Perkin Elmer) scintillation counter. After normalization to total and non-specific binding, the percent effect at each compound concentration was calculated. The plot of percent effect versus the log of compound concentration was analyzed electronically using a 4-parameter logistic fit based on the Levenberg-Marquardt algorithm to generate IC50 values.", "units": {"IC50": "nM"}, "values": [{"smiles": "COc1ccc(CN(Cc2nc3c4cccc(OC)c4nc(N)n3n2)CC2CC2)cn1", "note": "[Example 16.5, 2-(((cyclopropylmethyl)((6-methoxypyridin-3-yl)methyl)amino)methyl)-7-methoxy-[1,2,4]triazolo[1,5-c]quinazolin-5-amine]", "IC50": 9.2}, {"smiles": "CCN(Cc1ccc(C(F)(F)F)cc1)Cc1nc2c3cccc(OC)c3nc(N)n2n1", "note": "[Example 15.1, 2-((ethyl(4-(trifluoromethyl)benzyl)amino)methyl)-7-methoxy-[1,2,4]triazolo[1,5-c]quinazolin-5-amine]", "IC50": 3.2}, {"smiles": "COc1ccc(CN(Cc2nc3c4cccc(OC)c4nc(N)n3n2)CC2CC2)cc1", "note": "[Example 16.14, 2-(((cyclopropylmethyl)(4-methoxybenzyl)amino)methyl)-7-methoxy-[1,2,4]triazolo[1,5-c]quinazolin-5-amine]", "IC50": 7.2}, {"smiles": "Nc1nc2c(F)cc(F)cc2c2nc(CCNCc3ccc(C(F)(F)F)cc3)nn12", "note": "[Example 10.2, 7,9-difluoro-2-(2-((4-(trifluoromethyl)benzyl)amino)ethyl)-[1,2,4]triazolo[1,5-c]quinazolin-5-amine]", "IC50": 110}, {"smiles": "COc1cccc2c1nc(N)n1nc(CN(Cc3cccc4ncccc34)CC3CC3)nc21", "note": "[Example 16.16, 2-(((cyclopropylmethyl)(quinolin-5-ylmethyl)amino)methyl)-7-methoxy-[1,2,4]triazolo[1,5-c]quinazolin-5-amine]", "IC50": 3.5}, {"smiles": "COc1cccc2c1nc(N)n1nc(CN(Cc3ccc(C(F)(F)F)cc3)S(=O)(=O)C(F)(F)F)nc21", "note": "[Example 19.3, N-((5-amino-7-methoxy-[1,2,4]triazolo[1,5-c]quinazolin-2-yl)methyl)-1,1,1-trifluoro-N-(4-(trifluoromethyl)benzyl)methanesulfonamide]", "IC50": 115}, {"smiles": "COc1cccc2c1nc(N)n1nc(CCNCc3ccccc3C(F)(F)F)nc21", "note": "[Example 22.6, 7-methoxy-2-(2-((2-(trifluoromethyl)benzyl)amino)ethyl)-[1,2,4]triazolo[1,5-c]quinazolin-5-amine]", "IC50": 9.7}, {"smiles": "COc1cccc2c1nc(N)n1nc(CNCC3CCN(c4ncc(F)cn4)CC3)nc21", "note": "[Example 14.3, 2-((((1-(5-fluoropyrimidin-2-yl)piperidin-4-yl)methyl)amino)methyl)-7-methoxy-[1,2,4]triazolo[1,5-c]quinazolin-5-amine]", "IC50": 10}, {"smiles": "COc1cccc2c1nc(N)n1nc(CN(CCc3ccc(C(F)(F)F)cc3)CC3CCC3)nc21", "note": "[Example 15.12, 2-(((cyclobutylmethyl)(4-(trifluoromethyl)phenethyl)amino)methyl)-7-methoxy-[1,2,4]triazolo[1,5-c]quinazolin-5-amine]", "IC50": 23.6}, {"smiles": "COc1cccc2c1nc(N)n1nc(CN[C@H](C)c3ccc(C(F)(F)F)cc3)nc21", "note": "[Example 8.2, (R)-7-methoxy-2-(((1-(4-(trifluoromethyl)phenyl)ethyl)amino)methyl)-[1,2,4]triazolo[1,5-c]quinazolin-5-amine]", "IC50": 22.4}, {"smiles": "COc1cccc2c1nc(N)n1nc(CN(Cc3ccc(C(F)(F)F)cc3)S(=O)(=O)C3CC3)nc21", "note": "[Example 19.5, N-((5-amino-7-methoxy-[1,2,4]triazolo[1,5-c]quinazolin-2-yl)methyl)-N-(4-(trifluoromethyl)benzyl)cyclopropanesulfonamide]", "IC50": 17.6}, {"smiles": "COc1cccc2c1nc(N)n1nc(CCN[C@H](C)C(F)(F)F)nc21", "note": "[Example 23.4, (R)-7-methoxy-2-(2-((1,1,1-trifluoropropan-2-yl)amino)ethyl)-[1,2,4]triazolo[1,5-c]quinazolin-5-amine]", "IC50": 5.8}, {"smiles": "COc1cccc2c1nc(N)n1nc(CN(C)Cc3ccc(C(F)(F)F)cc3)nc21", "note": "[Example 8.3, 7-methoxy-2-((methyl(4-(trifluoromethyl)benzyl)amino)methyl)-[1,2,4]triazolo[1,5-c]quinazolin-5-amine]", "IC50": 6.4}, {"smiles": "COc1cccc2c1nc(N)n1nc(CN(C)c3cccc(Br)n3)nc21", "note": "[Example 10.11, 2-(((6-bromopyridin-2-yl)(methyl)amino)methyl)-7-methoxy-[1,2,4]triazolo [1,5-c]quinazolin-5-amine]", "IC50": 2.2}, {"smiles": "COc1cccc2c1nc(N)n1nc(CN(Cc3ccc(N4CCOCC4)nc3)CC3CC3)nc21", "note": "[Example 16.4, 2-(((cyclopropylmethyl)((6-morpholinopyridin-3-yl)methyl)amino)methyl)-7-methoxy-[1,2,4]triazolo[1,5-c]quinazolin-5-amine]", "IC50": 10.9}, {"smiles": "COc1cccc2c1nc(N)n1nc(CN(Cc3ccccn3)CC3CC3)nc21", "note": "[Example 16.1, 2-(((cyclopropylmethyl)(pyridin-2-ylmethyl)amino)methyl)-7-methoxy-[1,2,4]triazolo[1,5-c]quinazolin-5-amine]", "IC50": 12.8}, {"smiles": "COc1cccc2c1nc(N)n1nc(CNCC3(c4cccc(F)c4)CCOCC3)nc21", "note": "[Example 10.14, 2-((((4-(3-fluorophenyl)tetrahydro-2H-pyran-4-yl)methyl)amino)methyl)-7-methoxy-[1,2,4]triazolo[1,5-c]quinazolin-5-amine]", "IC50": 6.4}, {"smiles": "COc1cccc2c1nc(N)n1nc(CN[C@H](C)[C@@H](O)c3cc(C(F)(F)F)cc(C(F)(F)F)c3)nc21", "note": "[Example 10.1, (1S,2R)-2-(((5-amino-7-methoxy-[1,2,4]triazolo[1,5-c]quinazolin-2-yl)methyl)amino)-1-(3,5-bis(trifluoromethyl)phenyl)propan-1-ol]", "IC50": 40.2}, {"smiles": "COc1cccc2c1nc(N)n1nc(CN(Cc3ccc(C(F)(F)F)cc3)C3CC3)nc21", "note": "[Example 8.9, 2-((cyclopropyl(4-(trifluoromethyl)benzyl)amino)methyl)-7-methoxy-[1,2,4]triazolo[1,5-c]quinazolin-5-amine]", "IC50": 2.5}, {"smiles": "COc1cccc2c1nc(N)n1nc(CN(Cc3ccc(F)c(F)c3F)CC3CC3)nc21", "note": "[Example 16.17, 2-(((cyclopropylmethyl)(2,3,4-trifluorobenzyl)amino)methyl)-7-methoxy-[1,2,4]triazolo[1,5-c]quinazolin-5-amine]", "IC50": 4.8}, {"smiles": "COc1cccc2c1nc(N)n1nc(CN(Cc3ccc(OC(F)(F)F)cc3)C(=O)NC(C)C)nc21", "note": "[Example 20.3, 1-((5-amino-7-methoxy-[1,2,4]triazolo[1,5-c]quinazolin-2-yl)methyl)-3-isopropyl-1-(4-(trifluoromethoxy)benzyl)urea]", "IC50": 22.6}, {"smiles": "CCOC(=O)CN(Cc1nc2c3cccc(OC)c3nc(N)n2n1)CC1CC1", "note": "[Entry 17.2]", "IC50": 13}, {"smiles": "COc1cccc2c1nc(N)n1nc(CCN(C)Cc3ccc(C(F)(F)F)cc3)nc21", "note": "[Example 22.5, 7-methoxy-2-(2-(methyl(4-(trifluoromethyl)benzyl)amino)ethyl)-[1,2,4]triazolo[1,5-c]quinazolin-5-amine]", "IC50": 4.1}, {"smiles": "CCN(CC)Cc1nc2c3cccc(OC)c3nc(N)n2n1", "note": "[Example 5.3, 2-((diethylamino)methyl)-7-methoxy-[1,2,4]triazolo[1,5-c]quinazolin-5-amine]", "IC50": 24.4}, {"smiles": "COc1cccc2c1nc(N)n1nc(CN[C@H](C)C(F)(F)F)nc21", "note": "[Example 10.8, (R)-7-methoxy-2-(((1,1,1-trifluoropropan-2-yl)amino)methyl)-[1,2,4]triazolo[1,5-c]quinazolin-5-amine]", "IC50": 3.9}, {"smiles": "COc1cccc2c1nc(N)n1nc(CCNCc3ccc(C(F)(F)F)cc3)nc21", "note": "[Example 22.3, 7-methoxy-2-(2-((4-(trifluoromethyl)benzyl)amino)ethyl)-[1,2,4]triazolo[1,5-c]quinazolin-5-amine]", "IC50": 16.7}]}]}
